Assay results as given in patent US6979686B1, “Substituted pyrazoles as p38 kinase inhibitors” (Pharmacia Corporation, priority 2001, dated 2005).
Read-outs that look alike come from different tables or passages of the source.

Assays:
human p38 kinase alpha = molecular target: T1, human p38 kinase alpha (Homo sapiens, UniProt Q16539); test: p38 kinase in vitro assay, phosphorylation of biotinylated PHAS-I with 32P-ATP; assay type: biochemical; settings: for P38 alpha kinase % inhib @ conc. (uM): @ 1.0 uM; for IC50: in vitro P38-alpha kinase, read-out: P38 alpha kinase IC50
T1 construct: GST (N, cleaved yes); made in house; host or cells: E. coli DH10B

[1] = system: TNF-α, U937 human histiocytic lymphoma cell line; test: LPS stimulation of TNF production by U937 cells; assay type: cell-based; settings: for IC50: human U937 cells stimulated with LPS, read-out: U937 Cell IC50; for inhibition at 1 µM: U-937, @ 1.0 uM, read-out: U937 Cell % inhib @ conc.
In short: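 U937 cells differentiated 24 h with 20 ng/ml PMA, rested 24-48 h, used at 2 million cells/ml. Compounds in 0.1% DMSO final; LPS (E. coli, 100 ng/ml final) stimulation for 4 h at 37° C. Released TNF-α measured by ELISA; IC50 (μM).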

[2] = Homo sapiens, TNF production, LPS-stimulated U937 cells
[3] = Homo sapiens, U-937, TNF production

T1 sequence (Q16539 whole entry): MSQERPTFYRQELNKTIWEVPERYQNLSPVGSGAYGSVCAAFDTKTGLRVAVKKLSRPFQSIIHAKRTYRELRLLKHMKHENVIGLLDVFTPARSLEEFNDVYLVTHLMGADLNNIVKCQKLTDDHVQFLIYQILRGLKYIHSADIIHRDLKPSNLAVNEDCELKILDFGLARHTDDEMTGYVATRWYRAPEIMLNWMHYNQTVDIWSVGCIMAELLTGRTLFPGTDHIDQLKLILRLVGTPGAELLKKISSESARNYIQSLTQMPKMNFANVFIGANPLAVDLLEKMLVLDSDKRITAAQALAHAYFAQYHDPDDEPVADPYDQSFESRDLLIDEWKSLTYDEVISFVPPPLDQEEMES

Which results are given for O=C(NCCCc1[nH]nc(-c2ccc(F)cc2)c1-c1ccncc1)C1CCC1 [Example B-1165]?
P38 alpha kinase % inhib @ conc. (uM) (human p38 kinase alpha): 66.0% @; IC50 ([1]; TNF production): 990 nM

Which results are given for CC(C)=CC(=O)NCCCc1[nH]nc(-c2ccc(F)cc2)c1-c1ccncc1 [Example B-1175]?
P38 alpha kinase % inhib @ conc. (uM) (human p38 kinase alpha): 72.0% @; IC50 ([1]; TNF production): 1830 nM

Which results are given for COc1ccc(CC(=O)NCCCc2[nH]nc(-c3ccc(F)cc3)c2-c2ccncc2)cc1 [Example B-1177]?
P38 alpha kinase % inhib @ conc. (uM) (human p38 kinase alpha): 70.0% @; IC50 ([1]; TNF production): 1160 nM

With COc1cccc(C(=O)NCCCc2[nH]nc(-c3ccc(F)cc3)c2-c2ccncc2)c1 [Example B-1185] as the molecule, how does the “P38 alpha kinase % inhib @ conc. (uM)” value (human p38 kinase alpha) read?
Its value is 71.0% @.

What about the IC50 ([1]; TNF production) of the same molecule?
The IC50 was 790 nM.

Which results are given for O=S(=O)(NCCCc1[nH]nc(-c2ccc(F)cc2)c1-c1ccncc1)c1cccc(Cl)c1Cl [Example B-1250]?
IC50 (human p38 kinase alpha): 140 nM; inhibition at 1 µM [1, 2]: 18%

Which IC50 (human p38 kinase alpha) does the source give for O=S(=O)(NCCCc1[nH]nc(-c2ccc(F)cc2)c1-c1ccncc1)c1ccccc1Br [Example B-1259] here?
Its IC50 is < 100 nM.

What about the IC50 [1, 3] of the same molecule?
Its IC50 is 480 nM.

With Cc1ccc(C)c(S(=O)(=O)NCCCc2[nH]nc(-c3ccc(F)cc3)c2-c2ccncc2)c1 [Example B-1273] as the molecule, how does the IC50 (human p38 kinase alpha) read?
The IC50 was < 100 nM.

What about the inhibition at 1 µM [1, 2] of the same molecule?
Its inhibition at 1 µM is 36%.

For O=S(=O)(NCCCc1[nH]nc(-c2ccc(F)cc2)c1-c1ccncc1)c1cccc(C(F)(F)F)c1 [Example B-1276], which IC50 (human p38 kinase alpha) is on record?
Its IC50 is 62 nM.

What about the inhibition at 1 µM [1, 2] of the same molecule?
The inhibition at 1 µM was 11%.

How did the IC50 (human p38 kinase alpha) turn out when Cc1noc(C)c1S(=O)(=O)NCCCc1[nH]nc(-c2ccc(F)cc2)c1-c1ccncc1 [Example B-1281] was run?
The IC50 was < 100 nM.

And the inhibition at 1 µM [1, 2]?
The inhibition at 1 µM was 85%.

With O=C(NCCCc1[nH]nc(-c2ccc(F)cc2)c1-c1ccncc1)NCCCn1ccnc1 [Example B-1297] as the molecule, how does the IC50 (human p38 kinase alpha) read?
The IC50 was 20 nM.

What about the IC50 [1, 3] of the same molecule?
Its IC50 is > 1000 nM.

What does the source list for CN(C)c1ccc(CNC(=O)NCCCc2[nH]nc(-c3ccc(F)cc3)c2-c2ccncc2)cc1 [Example B-1301]?
IC50 (human p38 kinase alpha): 120 nM; inhibition at 1 µM [1, 2]: 15%

How did the IC50 (human p38 kinase alpha) turn out when CN(C)CCNC(=O)NCCCc1[nH]nc(-c2ccc(F)cc2)c1-c1ccncc1 [Example B-1302] was run?
The IC50 was 23 nM.

And the inhibition at 1 µM [1, 2]?
The inhibition at 1 µM was 11%.

Which IC50 (human p38 kinase alpha) does the source give for CN(C)CCCNC(=O)NCCCc1[nH]nc(-c2ccc(F)cc2)c1-c1ccncc1 [Example B-1303] here?
Its IC50 is 80 nM.

And the IC50 [1, 3]?
Its IC50 is > 1000 nM.

CC(=O)NCCNC(=O)NCCCc1[nH]nc(-c2ccc(F)cc2)c1-c1ccncc1 [Example B-1305] was tested. Which IC50 (human p38 kinase alpha) did it give?
The IC50 was 640 nM.

And the “U937 Cell % inhib @ conc.” value ([1]; @ 1.0 uM, TNF production, LPS-stimulated U937 cells)?
The value was 9.0% @.

NS(=O)(=O)c1ccc(CNC(=O)NCCCc2[nH]nc(-c3ccc(F)cc3)c2-c2ccncc2)cc1 [Example B-1308] was tested. Which IC50 (human p38 kinase alpha) did it give?
Its IC50 is < 100 nM.

And the IC50 [1, 3]?
The IC50 was > 1000 nM.

What does the source list for O=C(NCCCc1[nH]nc(-c2ccc(F)cc2)c1-c1ccncc1)NC1CN2CCC1CC2 (stereo not shown) [Example B-1309]?
IC50 (human p38 kinase alpha): 45 nM; IC50 [1, 3]: > 1000 nM

Which IC50 (human p38 kinase alpha) does the source give for O=C(NCCCc1[nH]nc(-c2ccc(F)cc2)c1-c1ccncc1)NCc1cccnc1 [Example B-1310] here?
The IC50 was 120 nM.

And the inhibition at 1 µM [1, 2]?
The inhibition at 1 µM was 11%.

With CS(=O)(=O)c1ccc(CNC(=O)NCCCc2[nH]nc(-c3ccc(F)cc3)c2-c2ccncc2)cc1 [Example B-1312] as the molecule, how does the IC50 (human p38 kinase alpha) read?
The IC50 was 350 nM.

What about the IC50 [1, 3] of the same molecule?
Its IC50 is > 1000 nM.

Which IC50 (human p38 kinase alpha) does the source give for O=C(NCCCc1[nH]nc(-c2ccc(F)cc2)c1-c1ccncc1)NCCc1ccccn1 [Example B-1314] here?
Its IC50 is 45 nM.

What about the inhibition at 1 µM [1, 2] of the same molecule?
Its inhibition at 1 µM is 24%.

Which results are given for O=C(NCCCc1[nH]nc(-c2ccc(F)cc2)c1-c1ccncc1)NCC1CC1 [Example B-1316]?
IC50 (human p38 kinase alpha): 26 nM; inhibition at 1 µM [1, 2]: 36%

O=C(NCCCc1[nH]nc(-c2ccc(F)cc2)c1-c1ccncc1)NCCCN1CCCC1 [Example B-1318] was tested. Which IC50 (human p38 kinase alpha) did it give?
The IC50 was < 100 nM.

What about the inhibition at 1 µM [1, 2] of the same molecule?
Its inhibition at 1 µM is 1%.

For O=C(NCCCc1[nH]nc(-c2ccc(F)cc2)c1-c1ccncc1)NCCCN1CCCC1=O [Example B-1319], which IC50 (human p38 kinase alpha) is on record?
Its IC50 is 240 nM.

What about the IC50 [1, 3] of the same molecule?
Its IC50 is > 1000 nM.

With O=C(c1ccc(I)cc1)N1CCC(c2[nH]nc(-c3ccc(F)cc3)c2-c2ccncc2)CC1 [Example B-1366] as the molecule, how does the IC50 (human p38 kinase alpha) read?
The IC50 was 40 nM.

And the IC50 [1, 3]?
Its IC50 is 270 nM.

Which results are given for COc1cccc(CC(=O)N2CCC(c3[nH]nc(-c4ccc(F)cc4)c3-c3ccncc3)CC2)c1 [Example B-1370]?
IC50 (human p38 kinase alpha): < 100 nM; IC50 [1, 3]: 770 nM

For CCS(=O)(=O)N1CCC(c2[nH]nc(-c3ccc(F)cc3)c2-c2ccncc2)CC1 [Example B-1375], which IC50 (human p38 kinase alpha) is on record?
The IC50 was 10 nM.

And the IC50 [1, 3]?
Its IC50 is 250 nM.

Which IC50 (human p38 kinase alpha) does the source give for O=S(=O)(c1ccccc1F)N1CCC(c2[nH]nc(-c3ccc(F)cc3)c2-c2ccncc2)CC1 [Example B-1377] here?
Its IC50 is 120 nM.

And the IC50 [1, 3]?
Its IC50 is 5000 nM.

Which results are given for O=C(Nc1ccccc1F)N1CCC(c2[nH]nc(-c3ccc(F)cc3)c2-c2ccncc2)CC1 [Example B-1379]?
IC50 (human p38 kinase alpha): < 100 nM; IC50 [1, 3]: 92 nM

How did the IC50 (human p38 kinase alpha) turn out when CCNC(=O)N1CCC(c2[nH]nc(-c3ccc(F)cc3)c2-c2ccncc2)CC1 [Example B-1381] was run?
Its IC50 is 55 nM.

And the IC50 [1, 3]?
Its IC50 is 730 nM.

Which results are given for O=C(c1cccs1)N1CCC(c2[nH]nc(-c3ccc(F)cc3)c2-c2ccncc2)CC1 [Example B-1384]?
IC50 (human p38 kinase alpha): 570 nM; IC50 [1, 3]: 370 nM

Which results are given for O=C(c1ccccn1)N1CCC(c2[nH]nc(-c3ccc(F)cc3)c2-c2ccncc2)CC1 [Example B-1386]?
IC50 (human p38 kinase alpha): < 100 nM; IC50 [1, 3]: 250 nM

Which results are given for O=C(c1ccc(Br)cc1)N1CCC(c2[nH]nc(-c3ccc(F)cc3)c2-c2ccncc2)CC1 [Example B-1388]?
IC50 (human p38 kinase alpha): 570 nM; IC50 [1, 3]: 1380 nM

Which IC50 (human p38 kinase alpha) does the source give for O=C(c1ccc(Cl)cc1)N1CCC(c2[nH]nc(-c3ccc(F)cc3)c2-c2ccncc2)CC1 [Example B-1389] here?
The IC50 was 60 nM.

And the IC50 [1, 3]?
The IC50 was 570 nM.

With O=C(c1ccccc1Cl)N1CCC(c2[nH]nc(-c3ccc(F)cc3)c2-c2ccncc2)CC1 [Example B-1397] as the molecule, how does the IC50 (human p38 kinase alpha) read?
The IC50 was 920 nM.

And the inhibition at 1 µM [1, 2]?
The inhibition at 1 µM was 85%.

Which IC50 (human p38 kinase alpha) does the source give for O=S(=O)(c1ccccc1)N1CCC(c2[nH]nc(-c3ccc(F)cc3)c2-c2ccncc2)CC1 [Example B-1433] here?
Its IC50 is 260 nM.

What about the inhibition at 1 µM [1, 2] of the same molecule?
The inhibition at 1 µM was 21%.

Which IC50 (human p38 kinase alpha) does the source give for Cn1cnc(S(=O)(=O)N2CCC(c3[nH]nc(-c4ccc(F)cc4)c3-c3ccncc3)CC2)c1 [Example B-1434] here?
The IC50 was 190 nM.

What about the inhibition at 1 µM [1, 2] of the same molecule?
Its inhibition at 1 µM is 28%.

What does the source list for O=S(=O)(c1ccc(-c2ccon2)s1)N1CCC(c2[nH]nc(-c3ccc(F)cc3)c2-c2ccncc2)CC1 [Example B-1440]?
IC50 (human p38 kinase alpha): 870 nM; inhibition at 1 µM [1, 2]: 3%

What does the source list for CN(C)c1cccc2c(S(=O)(=O)N3CCC(c4[nH]nc(-c5ccc(F)cc5)c4-c4ccncc4)CC3)cccc12 [Example B-1442]?
IC50 (human p38 kinase alpha): 1540 nM; inhibition at 1 µM [1, 2]: 18%

COc1ccc(OC)c(S(=O)(=O)N2CCC(c3[nH]nc(-c4ccc(F)cc4)c3-c3ccncc3)CC2)c1 [Example B-1444] was tested. Which IC50 (human p38 kinase alpha) did it give?
Its IC50 is 300 nM.

What about the inhibition at 1 µM [1, 2] of the same molecule?
The inhibition at 1 µM was 24%.

What does the source list for COc1ccc(Br)cc1S(=O)(=O)N1CCC(c2[nH]nc(-c3ccc(F)cc3)c2-c2ccncc2)CC1 [Example B-1446]?
IC50 (human p38 kinase alpha): 770 nM; inhibition at 1 µM [1, 2]: 36%

What does the source list for O=S(=O)(c1cccc(Cl)c1Cl)N1CCC(c2[nH]nc(-c3ccc(F)cc3)c2-c2ccncc2)CC1 [Example B-1448]?
IC50 (human p38 kinase alpha): 1430 nM; inhibition at 1 µM [1, 2]: 22%

O=S(=O)(c1c(F)cccc1F)N1CCC(c2[nH]nc(-c3ccc(F)cc3)c2-c2ccncc2)CC1 [Example B-1455] was tested. Which IC50 (human p38 kinase alpha) did it give?
Its IC50 is 1210 nM.

What about the inhibition at 1 µM [1, 2] of the same molecule?
Its inhibition at 1 µM is 8%.

What does the source list for O=S(=O)(c1ccc(F)c(F)c1)N1CCC(c2[nH]nc(-c3ccc(F)cc3)c2-c2ccncc2)CC1 [Example B-1456]?
IC50 (human p38 kinase alpha): 1290 nM; IC50 [1, 3]: > 1000 nM

What does the source list for O=S(=O)(c1ccccc1C(F)(F)F)N1CCC(c2[nH]nc(-c3ccc(F)cc3)c2-c2ccncc2)CC1 [Example B-1460]?
IC50 (human p38 kinase alpha): 960 nM; inhibition at 1 µM [1, 2]: 29%

O=S(=O)(c1cccc(Cl)c1)N1CCC(c2[nH]nc(-c3ccc(F)cc3)c2-c2ccncc2)CC1 [Example B-1465] was tested. Which IC50 (human p38 kinase alpha) did it give?
Its IC50 is 3230 nM.

And the inhibition at 1 µM [1, 2]?
Its inhibition at 1 µM is 31%.
